# Results as given in paper PMC8800111 (The Journal of Biological Chemistry, 2021).
# Key:
# Format in all cases: cell-based
# [1] = target: proteins of U3A human fibrosarcoma cells (4462 proteins detected) (Homo sapiens, UniProt P00374); settings: 10 μM, 2 h
# [2] = target: proteins of U3A human fibrosarcoma cells (4462 proteins detected) (Homo sapiens, UniProt P61923); settings: protein COPZ1; U3A cells
# [3] = target: proteins of U3A human fibrosarcoma cells (4462 proteins detected) (Homo sapiens, UniProt Q9Y5A9); settings: protein YTHDF2; U3A cells
# Chain of proteins of U3A human fibrosarcoma cells (4462 proteins detected) (Homo sapiens, UniProt Q9Y5A9) (Q9Y5A9 whole entry): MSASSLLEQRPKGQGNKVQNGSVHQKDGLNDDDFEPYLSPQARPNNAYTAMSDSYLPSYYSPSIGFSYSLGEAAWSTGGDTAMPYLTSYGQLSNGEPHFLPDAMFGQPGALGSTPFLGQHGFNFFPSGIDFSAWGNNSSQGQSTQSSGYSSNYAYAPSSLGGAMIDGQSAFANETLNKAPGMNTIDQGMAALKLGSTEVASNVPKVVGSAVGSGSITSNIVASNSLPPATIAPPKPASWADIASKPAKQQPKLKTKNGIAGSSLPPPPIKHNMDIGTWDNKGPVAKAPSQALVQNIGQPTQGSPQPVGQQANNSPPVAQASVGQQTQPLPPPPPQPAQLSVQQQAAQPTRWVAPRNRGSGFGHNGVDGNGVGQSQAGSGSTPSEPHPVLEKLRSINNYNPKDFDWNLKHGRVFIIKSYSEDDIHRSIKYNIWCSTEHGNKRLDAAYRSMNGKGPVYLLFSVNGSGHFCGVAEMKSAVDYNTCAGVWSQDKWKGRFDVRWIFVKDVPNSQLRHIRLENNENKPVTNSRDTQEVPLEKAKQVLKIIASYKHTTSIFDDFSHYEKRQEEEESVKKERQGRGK
# [4] = target: proteins of U3A human fibrosarcoma cells (4462 proteins detected) (Homo sapiens, UniProt Q9UIV1); settings: protein CNOT7; U3A, 10 μM, 2 h
# Chain of proteins of U3A human fibrosarcoma cells (4462 proteins detected) (Homo sapiens, UniProt Q9UIV1) (Q9UIV1 whole entry): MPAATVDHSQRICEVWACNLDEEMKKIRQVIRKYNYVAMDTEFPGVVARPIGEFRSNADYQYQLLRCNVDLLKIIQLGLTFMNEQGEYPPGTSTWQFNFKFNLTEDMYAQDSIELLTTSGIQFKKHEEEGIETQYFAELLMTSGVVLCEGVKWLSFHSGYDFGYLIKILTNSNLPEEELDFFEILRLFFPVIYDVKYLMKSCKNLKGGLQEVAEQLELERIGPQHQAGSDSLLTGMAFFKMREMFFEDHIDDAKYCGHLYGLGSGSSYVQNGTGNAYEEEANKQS
# [5] = target: proteins of U3A human fibrosarcoma cells (4462 proteins detected) (Homo sapiens, UniProt Q6P1L8); settings: protein MRPL14, U3A cells
# [6] = target: proteins of U3A human fibrosarcoma cells (4462 proteins detected) (Homo sapiens, UniProt Q27J81); settings: protein INF2, U3A cells
# [7] = target: proteins of U3A human fibrosarcoma cells (4462 proteins detected) (Homo sapiens, UniProt O43683); settings: protein BUB1; U3A cells
# [8] = target: proteins of U3A human fibrosarcoma cells (4462 proteins detected) (Homo sapiens, UniProt Q9BSL1); settings: protein UBAC1; soluble abundance after heat, U3A cells
# Chain of proteins of U3A human fibrosarcoma cells (4462 proteins detected) (Homo sapiens, UniProt Q9BSL1) (Q9BSL1 whole entry): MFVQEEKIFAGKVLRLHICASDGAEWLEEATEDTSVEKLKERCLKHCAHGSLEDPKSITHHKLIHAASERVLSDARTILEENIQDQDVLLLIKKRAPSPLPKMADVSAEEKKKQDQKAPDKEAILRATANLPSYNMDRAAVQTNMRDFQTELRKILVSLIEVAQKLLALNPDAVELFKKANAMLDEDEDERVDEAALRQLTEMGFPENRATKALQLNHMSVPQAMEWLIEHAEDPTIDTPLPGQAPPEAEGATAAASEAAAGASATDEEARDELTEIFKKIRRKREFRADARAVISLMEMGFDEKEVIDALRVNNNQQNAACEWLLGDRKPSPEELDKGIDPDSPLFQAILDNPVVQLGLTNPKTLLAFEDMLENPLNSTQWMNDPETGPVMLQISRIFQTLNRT
# [9] = target: proteins of U3A human fibrosarcoma cells (4462 proteins detected) (Homo sapiens, UniProt Q9BYM8); settings: protein RBCK1; U3A, 10 μM, 2 h
# Chain of proteins of U3A human fibrosarcoma cells (4462 proteins detected) (Homo sapiens, UniProt Q9BYM8) (Q9BYM8 whole entry): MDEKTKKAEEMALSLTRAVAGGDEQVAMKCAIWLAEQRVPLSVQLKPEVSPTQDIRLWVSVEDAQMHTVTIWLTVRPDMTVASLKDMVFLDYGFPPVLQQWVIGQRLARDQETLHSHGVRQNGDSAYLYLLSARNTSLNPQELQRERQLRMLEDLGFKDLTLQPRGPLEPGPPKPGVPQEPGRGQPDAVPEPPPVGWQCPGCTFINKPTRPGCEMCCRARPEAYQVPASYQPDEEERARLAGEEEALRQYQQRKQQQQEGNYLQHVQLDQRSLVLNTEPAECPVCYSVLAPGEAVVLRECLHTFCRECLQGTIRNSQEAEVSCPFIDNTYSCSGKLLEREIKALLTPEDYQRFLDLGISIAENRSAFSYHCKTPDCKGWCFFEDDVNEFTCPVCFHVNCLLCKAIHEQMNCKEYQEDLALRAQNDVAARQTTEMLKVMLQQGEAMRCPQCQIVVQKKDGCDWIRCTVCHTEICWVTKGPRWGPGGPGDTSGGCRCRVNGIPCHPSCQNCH
# [10] = target: proteins of U3A human fibrosarcoma cells (4462 proteins detected) (Homo sapiens, UniProt Q9ULX3); settings: protein NOB1; U3A cells
# Chain of proteins of U3A human fibrosarcoma cells (4462 proteins detected) (Homo sapiens, UniProt Q9ULX3) (Q9ULX3 whole entry): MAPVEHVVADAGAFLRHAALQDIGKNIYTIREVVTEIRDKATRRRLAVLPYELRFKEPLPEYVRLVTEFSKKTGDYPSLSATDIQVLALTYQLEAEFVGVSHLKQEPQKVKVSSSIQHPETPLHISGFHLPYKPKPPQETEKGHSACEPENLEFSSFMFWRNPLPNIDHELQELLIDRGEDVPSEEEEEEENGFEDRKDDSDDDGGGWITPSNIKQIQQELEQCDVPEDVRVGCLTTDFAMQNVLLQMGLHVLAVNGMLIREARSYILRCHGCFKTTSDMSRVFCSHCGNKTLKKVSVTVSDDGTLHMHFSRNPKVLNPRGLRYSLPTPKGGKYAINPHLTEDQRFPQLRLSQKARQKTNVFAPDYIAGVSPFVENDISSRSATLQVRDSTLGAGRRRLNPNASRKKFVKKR
# [11] = target: proteins of U3A human fibrosarcoma cells (4462 proteins detected) (Homo sapiens, UniProt P11182); settings: protein DBT; U3A cells
# [12] = target: proteins of U3A human fibrosarcoma cells (4462 proteins detected) (Homo sapiens, UniProt Q9NTX5); settings: protein ECHDC1; U3A cells
# Chain of proteins of U3A human fibrosarcoma cells (4462 proteins detected) (Homo sapiens, UniProt Q9NTX5) (Q9NTX5 whole entry): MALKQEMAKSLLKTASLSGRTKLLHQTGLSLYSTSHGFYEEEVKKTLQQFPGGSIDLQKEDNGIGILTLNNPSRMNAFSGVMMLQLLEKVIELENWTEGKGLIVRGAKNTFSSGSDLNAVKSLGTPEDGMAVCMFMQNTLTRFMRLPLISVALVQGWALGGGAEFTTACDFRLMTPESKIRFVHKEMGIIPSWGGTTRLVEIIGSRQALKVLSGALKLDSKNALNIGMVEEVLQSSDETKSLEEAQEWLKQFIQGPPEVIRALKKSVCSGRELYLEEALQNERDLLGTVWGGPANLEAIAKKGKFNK
# [13] = target: proteins of U3A human fibrosarcoma cells (4462 proteins detected) (Homo sapiens, UniProt Q9NVR0); settings: protein KLHL11; U3A cells
# [14] = target: proteins of U3A human fibrosarcoma cells (4462 proteins detected) (Homo sapiens, UniProt Q9UMX5); settings: protein NENF, U3A cells
# Chain of proteins of U3A human fibrosarcoma cells (4462 proteins detected) (Homo sapiens, UniProt Q9UMX5) (Q9UMX5 32-172): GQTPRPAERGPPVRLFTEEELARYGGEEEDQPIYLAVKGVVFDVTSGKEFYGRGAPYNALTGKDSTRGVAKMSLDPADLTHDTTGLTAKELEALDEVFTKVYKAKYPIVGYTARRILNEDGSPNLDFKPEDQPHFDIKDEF
# [15] = target: proteins of U3A human fibrosarcoma cells (4462 proteins detected) (Homo sapiens, UniProt P04818); settings: PISA
# [16] = target: proteins of U3A human fibrosarcoma cells (4462 proteins detected) (Homo sapiens, UniProt Q9ULU4); settings: protein ZMYND8; U3A cells
# [17] = target: proteins of U3A human fibrosarcoma cells (4462 proteins detected) (Homo sapiens, UniProt P23528); settings: protein CFL1, U3A cells
# [18] = target: proteins of U3A human fibrosarcoma cells (4462 proteins detected) (Homo sapiens, UniProt P51648); settings: protein ALDH3A2; U3A cells
# Chain of proteins of U3A human fibrosarcoma cells (4462 proteins detected) (Homo sapiens, UniProt P51648) (P51648 whole entry): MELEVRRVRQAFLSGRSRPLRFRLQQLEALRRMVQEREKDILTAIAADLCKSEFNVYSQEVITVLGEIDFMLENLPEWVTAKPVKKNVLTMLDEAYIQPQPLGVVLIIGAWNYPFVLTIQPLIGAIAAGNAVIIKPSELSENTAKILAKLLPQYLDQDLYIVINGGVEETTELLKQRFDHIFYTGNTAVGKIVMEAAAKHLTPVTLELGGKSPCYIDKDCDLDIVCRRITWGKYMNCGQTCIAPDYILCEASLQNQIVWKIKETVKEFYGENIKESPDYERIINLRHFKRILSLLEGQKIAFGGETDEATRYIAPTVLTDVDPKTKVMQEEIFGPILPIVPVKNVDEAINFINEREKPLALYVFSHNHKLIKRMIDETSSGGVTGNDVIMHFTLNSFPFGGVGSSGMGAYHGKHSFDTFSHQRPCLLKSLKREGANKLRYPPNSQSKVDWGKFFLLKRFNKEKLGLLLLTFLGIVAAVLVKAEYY
# [19] = target: proteins of U3A human fibrosarcoma cells (4462 proteins detected) (Homo sapiens, UniProt Q96BP2); settings: protein CHCHD1; soluble abundance after heat, U3A cells
# [20] = target: proteins of U3A human fibrosarcoma cells (4462 proteins detected) (Homo sapiens, UniProt P29034); settings: protein S100A2, U3A cells
# [21] = target: proteins of U3A human fibrosarcoma cells (4462 proteins detected) (Homo sapiens, UniProt O95671); settings: protein ASMTL; U3A, 10 μM, 2 h
# Chain of proteins of U3A human fibrosarcoma cells (4462 proteins detected) (Homo sapiens, UniProt O95671) (O95671 whole entry): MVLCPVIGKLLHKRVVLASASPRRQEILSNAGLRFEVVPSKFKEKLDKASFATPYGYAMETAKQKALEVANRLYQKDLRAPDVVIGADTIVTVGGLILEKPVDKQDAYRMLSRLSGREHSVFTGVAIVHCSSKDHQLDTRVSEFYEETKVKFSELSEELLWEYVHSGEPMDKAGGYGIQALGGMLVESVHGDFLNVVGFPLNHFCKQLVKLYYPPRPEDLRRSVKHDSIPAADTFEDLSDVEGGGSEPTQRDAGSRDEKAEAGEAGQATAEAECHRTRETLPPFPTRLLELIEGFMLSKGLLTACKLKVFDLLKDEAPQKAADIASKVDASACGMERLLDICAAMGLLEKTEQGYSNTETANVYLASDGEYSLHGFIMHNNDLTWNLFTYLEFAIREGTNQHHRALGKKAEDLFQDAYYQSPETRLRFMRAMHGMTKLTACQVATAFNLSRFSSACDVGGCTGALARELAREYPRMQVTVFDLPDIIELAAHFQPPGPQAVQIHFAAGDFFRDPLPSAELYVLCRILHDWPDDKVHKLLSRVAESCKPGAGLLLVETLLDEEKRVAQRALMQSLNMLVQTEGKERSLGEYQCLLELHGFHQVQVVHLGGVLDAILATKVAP
# [22] = target: proteins of U3A human fibrosarcoma cells (4462 proteins detected) (Homo sapiens, UniProt O95456); settings: protein PSMG1, U3A cells
# [23] = target: proteins of U3A human fibrosarcoma cells (4462 proteins detected) (Homo sapiens, UniProt O60291); settings: protein MGRN1; U3A, 10 μM, 2 h
# [24] = target: proteins of U3A human fibrosarcoma cells (4462 proteins detected) (Homo sapiens, UniProt Q6QNY1); settings: protein BLOC1S2, U3A cells
# Chain of proteins of U3A human fibrosarcoma cells (4462 proteins detected) (Homo sapiens, UniProt Q6QNY1) (Q6QNY1 whole entry): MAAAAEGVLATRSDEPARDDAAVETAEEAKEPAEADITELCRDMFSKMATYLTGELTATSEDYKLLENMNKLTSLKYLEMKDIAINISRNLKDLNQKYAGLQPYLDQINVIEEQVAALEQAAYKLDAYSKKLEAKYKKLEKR
# [25] = target: proteins of U3A human fibrosarcoma cells (4462 proteins detected) (Homo sapiens, UniProt Q9NX08); settings: protein COMMD8; soluble abundance after heat, U3A cells
# [26] = target: proteins of U3A human fibrosarcoma cells (4462 proteins detected) (Homo sapiens, UniProt Q8WUR7); settings: protein C15orf40, U3A cells
# Chain of proteins of U3A human fibrosarcoma cells (4462 proteins detected) (Homo sapiens, UniProt Q8WUR7) (Q8WUR7 whole entry): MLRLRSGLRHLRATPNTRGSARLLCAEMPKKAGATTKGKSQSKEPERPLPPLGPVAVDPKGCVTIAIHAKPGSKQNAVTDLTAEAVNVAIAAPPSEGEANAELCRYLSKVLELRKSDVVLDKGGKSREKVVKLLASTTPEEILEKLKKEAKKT
# [27] = target: proteins of U3A human fibrosarcoma cells (4462 proteins detected) (Homo sapiens, UniProt P82933); settings: protein MRPS9; soluble abundance after heat, U3A cells
# [28] = target: proteins of U3A human fibrosarcoma cells (4462 proteins detected) (Homo sapiens, UniProt Q8IVL6); settings: protein LEPREL2; soluble abundance after heat, U3A cells
# [29] = target: proteins of U3A human fibrosarcoma cells (4462 proteins detected) (Homo sapiens, UniProt P50213); settings: protein IDH3A; U3A cells
# [30] = target: proteins of U3A human fibrosarcoma cells (4462 proteins detected) (Homo sapiens, UniProt Q01518); settings: protein CAP1; U3A cells
# Chain of proteins of U3A human fibrosarcoma cells (4462 proteins detected) (Homo sapiens, UniProt Q01518) (Q01518 whole entry): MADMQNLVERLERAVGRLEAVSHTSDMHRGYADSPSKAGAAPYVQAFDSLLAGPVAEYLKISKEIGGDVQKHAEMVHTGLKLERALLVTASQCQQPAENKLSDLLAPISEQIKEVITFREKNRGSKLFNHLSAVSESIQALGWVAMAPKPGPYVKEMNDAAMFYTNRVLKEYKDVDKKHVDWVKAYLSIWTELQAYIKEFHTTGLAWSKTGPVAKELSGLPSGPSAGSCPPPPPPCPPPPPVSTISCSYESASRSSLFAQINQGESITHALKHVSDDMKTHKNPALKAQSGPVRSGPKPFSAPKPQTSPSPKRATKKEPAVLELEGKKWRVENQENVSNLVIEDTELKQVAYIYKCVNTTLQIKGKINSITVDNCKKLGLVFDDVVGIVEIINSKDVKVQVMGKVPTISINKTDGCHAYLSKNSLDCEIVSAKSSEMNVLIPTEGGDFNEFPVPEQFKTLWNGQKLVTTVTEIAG
# Chain of proteins of U3A human fibrosarcoma cells (4462 proteins detected) (Homo sapiens, UniProt P00374) (P00374 whole entry): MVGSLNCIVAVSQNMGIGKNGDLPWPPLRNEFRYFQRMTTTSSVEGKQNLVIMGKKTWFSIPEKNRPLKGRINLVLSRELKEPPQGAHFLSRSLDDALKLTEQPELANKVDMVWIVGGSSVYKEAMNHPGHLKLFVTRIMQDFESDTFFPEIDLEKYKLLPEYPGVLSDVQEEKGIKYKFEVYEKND
# Chain of proteins of U3A human fibrosarcoma cells (4462 proteins detected) (Homo sapiens, UniProt P61923) (P61923 whole entry): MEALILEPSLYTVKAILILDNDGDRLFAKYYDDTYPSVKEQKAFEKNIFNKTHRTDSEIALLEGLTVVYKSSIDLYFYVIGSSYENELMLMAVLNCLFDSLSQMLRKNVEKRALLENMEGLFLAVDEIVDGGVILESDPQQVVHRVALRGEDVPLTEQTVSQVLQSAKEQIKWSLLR
compound,measurement,setting,value
CCc1nc(N)nc(N)c1-c1ccc(Cl)cc1 [pyrimethamine],increased abundance of DHFR in the soluble fraction,"[1]; U3A cells, vs vehicle",1.7 fold
same,"Log2 (PYR/DMSO), DHFR","[1]; protein DHFR, U3A",0.80
same,Log2 (PYR/DMSO),[2],0.18
same,Log2 (PYR/DMSO),[3],0.16
same,"Log2 (PYR/DMSO), CNOT7",[4],-0.24
same,Log2 (PYR/DMSO),[5],-0.04
same,Log2 (PYR/DMSO),[6],-0.04
same,Log2 (PYR/DMSO),[7],0.16
same,Log2 (PYR/DMSO),[8],0.13
same,"Log2 (PYR/DMSO), RBCK1",[9],-0.16
same,Log2 (PYR/DMSO),[10],0.15
same,Log2 (PYR/DMSO),[11],0.16
same,Log2 (PYR/DMSO),[12],0.18
same,Log2 (PYR/DMSO),[13],0.18
same,Log2 (PYR/DMSO),[14],-0.04
same,engagement of TS (thymidylate synthase),[15],no engagement
same,Log2 (PYR/DMSO),[16],0.16
same,Log2 (PYR/DMSO),[17],-0.04
same,Log2 (PYR/DMSO),[18],0.16
same,Log2 (PYR/DMSO),[19],0.15
same,Log2 (PYR/DMSO),[20],-0.04
same,"Log2 (PYR/DMSO), ASMTL",[21],0.27
same,Log2 (PYR/DMSO),[22],-0.05
same,"Log2 (PYR/DMSO), MGRN1",[23],-0.25
same,Log2 (PYR/DMSO),[24],-0.04
same,Log2 (PYR/DMSO),[25],0.14
same,Log2 (PYR/DMSO),[26],-0.03
same,Log2 (PYR/DMSO),[27],0.15
same,Log2 (PYR/DMSO),[28],0.14
same,Log2 (PYR/DMSO),[29],0.16
same,Log2 (PYR/DMSO),[30],0.20
